From US20030198662A1, “Transdermal administration of N-(2,5-disubstituted phenyl)-N'-(3-substituted phenyl)-N'-methyl guanidines” (priority 1999, published 2003)

Experiment: Electrotransport drug flux in automated permeation cells (zero-current passive phase, then electrotransport phase)
Assay type: in vitro ADME
Settings: aqueous donor solution about 15 mg/mL drug HCl salt, receptor Dulbecco's phosphate buffered saline pH 7.4
Experimental: Automated permeation cells used for passive permeation studies were also used for the assessment of electrotransport drug flux. The donor compartment contained the silver anode while the receptor compartment contained the silver chloride cathode. The electrodes were connected to a Maccor power source. An aqueous donor solution containing about 15 mg/mL of the drug HCl salt was utilized. The receptor solution was Dulbecco's phosphate buffered saline ([…]) pH 7.4. The first 16 hours served as a zero current passive phase after which the power source was turned on. The electrotransport phase during which a current of 0.2 mA was supplied (to result in a current density of 0.1 mA/cm^2) lasted 24 hours. Receptor solution was automatically collected every 4 hours during the passive phase and every hour during the electrotransport phase, and analyzed for drug by HPLC. Flux, as μg/cm^2h, was calculated, as was the average steady-state flux, which included data points where delivery had reached a nearly constant value.

## CSc1cccc(N(C)C(=N)Nc2cc(SC)ccc2Cl)c1 [CNS 5161, N-(2-chloro-5-(methylthio)phenyl)-N′-(3-(methylthio)phenyl)-N′-methyl guanidine]
Current 0.2 mA, current density 0.1 mA/cm^2, 24 hours
  Average steady-state flux during electrotransport: 53±2.5 μg/cm^2h
Initial 16 hours, zero current
  Flux during zero-current passive phase: about 0.02 μg/cm^2h
